# Assay results: PMC4626104, “Inhibition on Proteasome β1 Subunit Might Contribute to the Anti-Cancer Effects of Fangchinoline in Human Prostate Cancer Cells” (PLoS ONE, 2015)
# Read-outs that look alike come from different tables or passages of the source.
# Experiments:
# [1] = system: T1, proteasome of PC-3 tumor xenografts; test: Proteasome activities of tumor xenografts; format: in vivo, nude mice
# T1 construct: from tissue; host or cells: PC-3 tumour xenografts from Balb/c-nu-nu mice, homogenate supernatant
# Experimental: (§1) Cells were treated with either solvent control (0.1% DMSO), fangchinoline at different concentrations, or 1 μM carfilzomib (positive control) for 24 h at 37 °C. The enzymatic activities of cellular proteasome in cell lysate were measured as reported in our previous paper. Briefly, cells were harvested, washed with PBS and then lysed in proteasome activity assay buffer for 30 min at 4°C. The homogenate was then centrifuged at 12000 × g for 30 min at 4°C. The supernatant was collected as whole cell extract and the protein content in the supernatant was measured with the Bradford reagent. Catalytic activities of cellular proteasome were assayed by adding whole cell extract (containing 30 μg protein) to 100 μL of proteasome activity assay buffer containing 50 μM fluorogenic peptide substrates such as Z-LLE-AMC for detecting C-L activity, Z-ARR-AMC for detecting T-L activity or Suc-LLVY-AMC for detecting CT-L activity, respectively. The release of fluorogenic AMC from the peptide substrates was then measured as described above.
# Male nude immunodeficient mice Balb/c-nu-nu, aged 4 weeks, were purchased from Shanghai Experimental Animal Center. […] Tumor sizes were measured every 4 days using calipers and their volumes were calculated using a standard formula: width^2×length/2. […] Body weight was measured daily. […]
# LnCap cells = test: MTT assay of cell proliferation, LnCap cells; format: cell-based; settings: Homo sapiens, read-out: IC50 inhibiting cell proliferation
# Experimental: The inhibitive effects of fangchinoline on proliferation of PC-3 cells or LnCap cells was observed by checking cell viability of cells using MTT assay as described before. Briefly, cells were seeded in 96-well plates at a density of 5×10^4 cells/mL for PC-3 cell and 4×10^4 cells/mL for LnCap cells. After overnight culture, the media were changed into fresh media containing various concentrations of fangchinoline or 0.1% DMSO (solvent control) for 24, 48 h or 72 h. Cell viability was evaluated by measuring the mitochondrial-dependent conversion of the yellow tetrazolium salt MTT to purple formazan crystals by metabolic active cells. The optical density (proportional to the number of live cells) was assessed with a Microplate Reader Bio-Rad 550 at 570 nm. IC50 value (half-maximal inhibitory concentration) was calculated by the Logit method.
# [2] = system: T2, cellular proteasome of LnCap cells; test: Cellular proteasome activities of LnCap cells; format: cell-based, human; settings: 24 h
# T2 construct: endogenous in cells; host or cells: LnCap cells, whole cell extract
# Experimental: as §1
# [3] = target: T3, recombinant human proteasome β1 subunit (Homo sapiens, UniProt P28072); test: Surface plasmon resonance (Biacore) binding assay; settings: Biacore, 25°C, 1:1 Langmuir model
# T3 construct: His-Tag; made in house; host or cells: Escherichia coli
# T3 sequence (P28072 1-239): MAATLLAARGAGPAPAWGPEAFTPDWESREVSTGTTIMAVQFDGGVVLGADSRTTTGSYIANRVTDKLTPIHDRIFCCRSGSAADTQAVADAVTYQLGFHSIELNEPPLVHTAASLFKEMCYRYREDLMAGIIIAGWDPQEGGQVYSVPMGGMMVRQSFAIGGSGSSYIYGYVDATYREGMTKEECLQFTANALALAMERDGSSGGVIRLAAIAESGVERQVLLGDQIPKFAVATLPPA
# Experimental: The recombinant human proteasome β1 subunit, product of PSMB6 gene, was expressed as His-Tag proteins using Escherichia coli, and then purified by affinity chromatography as reported in our previous study. The binding affinities of fangchinoline or tetrandrine to recombinant proteasome catalytic β1 subunit, were assayed in vitro using an Biacore 3000 instrument (Biacore AB, Rapsgatan 7, S-754 50 Uppsala, Sweden) as reported before. Briefly, recombinant proteasome β1 subunit protein was immobilized on a CM5 sensor chip as ligand in 11624.5 RU with N-ethyl-N’-(3-dimethylaminopropyl) carbodiimide and N-hydroxysuccinimide according to the standard primary amine-coupling procedures, and HBS-EP (10 mM HEPES, 150 mM NaCl, 3 mM EDTA, 0.005% (v/v) surfactant P20, pH 7.4) was used as the running buffer. Equilibration of the baseline was performed by a continuous flow of HBS-EP through the chip surface for 1 to 2 h. Biacore data were collected at 25°C with HBS-EP as the running buffer at a constant flow of 20 μL/min. Fangchinoline or tetradrine was serially diluted into the running buffer to 0, 2.4, 3.43, 4.90, 7.0, 10 and 20 μM. The samples were injected into the channels at a flow rate of 20 μL/min, followed by washing with the running buffer. The binding responses were recorded continuously in response units (RU) at a frequency of 1Hz as sensorgrams and presented as a function of time. The association (k a) and dissociation (k d) rate constants, the equilibrium dissociation constant ( KD=kd/ka ) were determined by analysis of the sensorgram-curves obtained at different concentrations of the compound by use of BIA evaluation software version 3.1 (Biacore) and the 1:1 Langmuir binding fitting model.
structure (smiles),measurement,setting,value
COc1ccc2cc1Oc1ccc(cc1)C[C@H]1c3cc(c(OC)cc3CCN1C)Oc1c(O)c(OC)cc3c1[C@H](C2)N(C)CC3 [fangchinoline],Significance of decrease in proteasome activity of tumor xenografts,[1]; 50 mg/kg group,significant
same,Proteasome activities of tumor xenografts compared with vehicle control,[1]; fangchinoline-treated groups (25 and 50 mg/kg),decreased
same,IC50,LnCap cells; 24 h,36.2 ± 6.33 µM
same,IC50,LnCap cells; 48 h,11.6 ± 0.22 µM
same,IC50,LnCap cells; 72 h,12.7 ± 0.59 µM
same,Effect on CT-L activity of cellular proteasome,[2],did not affect
same,Effect on T-L activity of cellular proteasome,[2],did not affect
same,Inhibition of C-L activity of cellular proteasome,[2],significantly inhibit
same,Dissociation (k d),[3],0.0353 S^-1
same,Kd,[3]; read-out: Equilibrium dissociation (K D),4.68 µM
same,kon,"[3]; pH 7.4, read-out: Association (k a)",7550 M⁻¹ s⁻¹
